# From ChEMBL document CHEMBL1126778, “Adenosine A1 antagonists. 3. Structure-activity relationships on amelioration against scopolamine- or N6-((R)-phenylisopropyl)adenosine-induced cognitive disturbance” (J Med Chem, 1993)
# Assays:
# [1] = tested on: Mus musculus; test: Acquisition time in (R)-PIA) induced avoidance test (performed in mice) for antagonistic activity after p.o. administration of 1.25 mg/kg; format: functional; conditions: route oral
# [2] = tested on: Mus musculus; test: Retention time in (R)-PIA) induced avoidance test (performed in mice) for antagonistic activity after peroral administration of 0.31 mg/kg (n=15) (P<0.005); format: functional, organism-based; set-up: dose 0.31 mg/kg
# [3] = tested on: Mus musculus; test: Retention time in (R)-PIA) induced avoidance test (performed in mice) for antagonistic activity after p.o. administration of 1.25 mg/kg; format: functional, organism-based; set-up: dose 1.25 mg/kg
# [4] = tested on: Rattus norvegicus; test: Acquisition time in Scopolamine induced avoidance test (performed in rat) for antagonistic activity after peroral administration of 1.25 mg/kg; format: functional; conditions: route oral
# [5] = tested on: Rattus norvegicus; test: Retention time in Scopolamine induced avoidance test (performed in rat) for antagonistic activity after peroral administration of 20 mg/kg (n=14); format: functional, organism-based; set-up: dose 20 mg/kg
# [6] = tested on: Rattus norvegicus; test: Retention time in Scopolamine induced avoidance test (performed in rat) for antagonistic activity after peroral administration of 1.25 mg/kg; format: functional, organism-based; set-up: dose 1.25 mg/kg
# [7] = tested on: Mus musculus; test: Retention time in (R)-PIA) induced avoidance test (performed in mice) for antagonistic activity after peroral administration of 5 mg/kg; format: functional, organism-based; set-up: dose 5 mg/kg
# [8] = tested on: Rattus norvegicus; test: Acquisition time in Scopolamine induced avoidance test (performed in rat) for antagonistic activity after peroral administration of 20 mg/kg; format: functional; conditions: route oral
# [9] = tested on: Mus musculus; test: Acquisition time in (R)-PIA) induced avoidance test (performed in mice) for antagonistic activity after peroral administration of 0.31 mg/kg (n=15); format: functional; conditions: route oral
# [10] = tested on: Rattus norvegicus; test: Acquisition time in Scopolamine induced avoidance test (performed in rat) for antagonistic activity after peroral administration of 0.31 mg/kg (n=15); format: functional; conditions: route oral
# [11] = tested on: Rattus norvegicus; test: Retention time in Scopolamine induced avoidance test (performed in rat) for antagonistic activity after p.o. administration of 0.08 mg/kg; format: functional, organism-based; set-up: dose 0.08 mg/kg
# [12] = tested on: Rattus norvegicus; test: Retention time in Scopolamine induced avoidance test (performed in […]) for antagonistic activity after peroral administration of 5 mg/kg; format: functional, organism-based; set-up: dose 5 mg/kg
# [13] = tested on: Mus musculus; test: Retention time in (R)-PIA) induced avoidance test (performed in mice) for antagonistic activity after peroral administration of 0.08 mg/kg; format: functional, organism-based; set-up: dose 0.08 mg/kg
# [14] = tested on: Mus musculus; test: Acquisition time in (R)-PIA) induced avoidance test (performed in mice) for antagonistic activity after peroral administration of 5 mg/kg; format: functional; conditions: route oral
# [15] = tested on: Rattus norvegicus; test: Retention time in Scopolamine induced avoidance test (performed in rat) for antagonistic activity after peroral administration of 0.31 mg/kg (n=15); format: functional, organism-based; set-up: dose 0.31 mg/kg
# [16] = tested on: Rattus norvegicus; test: Acquisition time in Scopolamine induced avoidance test (performed in rat) for antagonistic activity after p.o. administration of 0.08 mg/kg; format: functional; conditions: route oral
# [17] = tested on: Rattus norvegicus; test: Acquisition time in Scopolamine induced avoidance test (performed in rat) for antagonistic activity after p.o. administration of 5 mg/kg; format: functional; conditions: route oral
# [18] = tested on: Mus musculus; test: Acquisition time in (R)-PIA) induced avoidance test (performed in mice) for antagonistic activity after peroral administration of 0.08 mg/kg; format: functional; conditions: route oral
# [19] = tested on: Rattus norvegicus; test: Acquisition time in Scopolamine induced avoidance test (performed in rat) for antagonistic activity after peroral administration of 0.02 mg/kg; conditions: route oral
# [20] = tested on: Rattus norvegicus; test: Retention time in Scopolamine induced avoidance test (performed in rat) for antagonistic activity after peroral administration of 0.02 mg/kg; format: functional, organism-based; set-up: dose 0.02 mg/kg
# [21] = tested on: Rattus norvegicus; test: Retention time in Scopolamine induced avoidance test (performed in rat) for antagonistic activity after p.o. administration of 0.31 mg/kg; format: functional, organism-based; set-up: dose 0.31 mg/kg
# [22] = tested on: Rattus norvegicus; test: Acquisition time in Scopolamine induced avoidance test (performed in rat) for antagonistic activity after p.o. administration of 0.31 mg/kg; format: functional; conditions: route oral
# [23] = tested on: Rattus norvegicus; test: Acquisition time in Scopolamine induced avoidance test (performed in rat) for antagonistic activity after peroral administration of 0.02 mg/kg; format: functional; conditions: route oral
# [24] = tested on: Mus musculus; test: Retention time in (R)-PIA) induced avoidance test (performed in mice) for antagonistic activity after peroral of 0.31 mg/kg; format: functional, organism-based; set-up: dose 0.31 mg/kg
# [25] = tested on: Rattus norvegicus; test: Retention time in Scopolamine induced avoidance test (performed in rat) for antagonistic activity after peroral administration of 20 mg/kg; format: functional, organism-based; set-up: dose 20 mg/kg
# [26] = biological target: Adenosine A2 receptor (Rattus norvegicus, UniProt P29276+P30543); test: Binding affinity against Adenosine A2 receptor from rat striatal membranes with N-[3H] ethyladenosin-5'-uronamide
# [27] = biological target: T1, Adenosine receptor A1 (Cavia porcellus, UniProt P47745); test: Binding affinity against Adenosine A1 receptor from guinea pig forebrain membranes by N6-[3H]- cyclohexyladenosine displacement.
# T1 sequence (P47745 whole entry): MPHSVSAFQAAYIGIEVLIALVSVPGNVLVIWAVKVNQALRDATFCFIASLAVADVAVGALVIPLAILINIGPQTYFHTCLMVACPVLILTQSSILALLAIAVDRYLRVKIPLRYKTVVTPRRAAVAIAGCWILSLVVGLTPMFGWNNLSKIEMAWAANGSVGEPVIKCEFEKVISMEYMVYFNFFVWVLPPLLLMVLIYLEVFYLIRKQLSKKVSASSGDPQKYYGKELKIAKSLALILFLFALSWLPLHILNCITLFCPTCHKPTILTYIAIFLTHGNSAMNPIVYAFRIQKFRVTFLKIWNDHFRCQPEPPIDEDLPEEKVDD
# [28] = tested on: Mus musculus; test: Acquisition time in (R)-PIA) induced avoidance test (performed in mice) for antagonistic activity after p.o. administration of 0.31 mg/kg; format: functional; conditions: route oral
# [29] = tested on: Mus musculus; test: Tested for locomotor activity after oral administration of 5 mg/kg for 120 min; format: functional
# [30] = tested on: Rattus norvegicus; test: Retention time in Scopolamine induced avoidance test (performed in rat) for antagonistic activity after peroral administration of 20 mg/kg (n=10); format: functional, organism-based; set-up: dose 20 mg/kg
# [31] = tested on: Mus musculus; test: Retention time in (R)-PIA) induced avoidance test (performed in mice) for antagonistic activity after peroral administration of 0.31 mg/kg; format: functional, organism-based; set-up: dose 0.31 mg/kg
# [32] = tested on: Mus musculus; test: Retention time in (R)-PIA) induced avoidance test (performed in mice) for antagonistic activity after peroral administration of 0.02 mg/kg
# [33] = tested on: Mus musculus; test: Acquisition time in (R)-PIA) induced avoidance test (performed in mice) for antagonistic activity after peroral administration of 0.02 mg/kg; conditions: route oral
# [34] = tested on: Mus musculus; test: Tested for locomotor activity after oral administration of 1.25 mg/kg for 120 min; format: functional
Structure (SMILES),Acquisition time [1] [s],Retention time [3] [s],Acquisition time [4] [s],Retention time [6] [s],Retention time [7] [s],Acquisition time [8] [s],Retention time [11] [s],Retention time [12] [s],Retention time [13] [s],Acquisition time [14] [s],Acquisition time [16] [s],Acquisition time [17] [s],Acquisition time [18] [s],Retention time [20] [s],Retention time [21] [s],Acquisition time [22] [s],Acquisition time [28] [s],other results
CC(C)Cn1c(=O)n(C)c(=O)c2[nH]c(C(C3CC3)C3CC3)nc21,19.9,349,11.8,22.8,359,9.6,17.6,9.9,171,12.5,7.1,11.5,25.7,17.6,–,–,–,Retention time [2]: 370 s; Retention time [5]: 14.1 s; Acquisition time [9]: 26.4 s; Acquisition time [10]: 8.3 s; Retention time [15]: 50.9 s; Acquisition time [19]: 10.1 s
CCCn1c(=O)c2[nH]c(C3CCCC3)nc2n(CCC)c1=S,12.3,52.7,9.9,56.4,104,6.7,75.3,21.6,48.1,26.9,9.4,8.5,24.7,19,25.8,8.9,32.7,Acquisition time [23]: 8.9 s; Retention time [24]: 121 s; Retention time [25]: 52.4 s; Ki [26]: > 10000 nM; Ki [27]: 6.6 nM
CCCN1C(=O)N2CC(CC)N=C2c2[nH]c(C34CC5CC(CC3C5)C4)nc21 (racemic),21.2,231,14.1,40.8,277,26.6,251,66.3,196,24.9,21.3,22.5,23.5,–,221,17.3,22.7,Locomotor activity [29]: 6907 Counts; Retention time [30]: 21 s; Retention time [31]: 292 s; Retention time [32]: 168 s; Acquisition time [33]: 23 s; Locomotor [34]: 5761 Counts
